The term clearance denotes the volume of plasma or blood freed of the substance per unit of time. As a reminder, the pKi is the Ki on a negative log10 scale, so that one unit is a factor of ten. Higher therefore signals a small Ki. In general, bioavailability refers to dose-corrected exposure relative to a reference, in per cent. Low values mean little systemic uptake, high ones much systemic uptake. Usually inhibition stands for the relative decrease from the control value, in per cent. The pIC50 is the IC50 on a negative log10 scale, so that one unit is a factor of ten.

pIC50, pKi: −log10 of the molar value.

Test system in one data set: not listed separately
Description: Clearance in rat at 5 mg/kg, iv. To be noted: in vivo. Set-up: dose 5 mg/kg, route intravenous. The class given is ADME, organism-based.
`CN(C)CC(C)(C)COc1cccc(-c2sc(Nc3cccnc3Oc3ccccc3C(C)(C)C)nc2C(F)(F)F)c1` showed a clearance of 6.7 mL/min/kg.

In a further data set the target is P2Y purinoceptor 1 (Homo sapiens, UniProt P47900). Put plainly: Displacement of [beta-33P]-2MeS-ADP from human P2Y1 receptor expressed in HEK293 cells after 1 hr by scintillation counting analysis.
Chain of P2Y purinoceptor 1 (P47900 whole entry): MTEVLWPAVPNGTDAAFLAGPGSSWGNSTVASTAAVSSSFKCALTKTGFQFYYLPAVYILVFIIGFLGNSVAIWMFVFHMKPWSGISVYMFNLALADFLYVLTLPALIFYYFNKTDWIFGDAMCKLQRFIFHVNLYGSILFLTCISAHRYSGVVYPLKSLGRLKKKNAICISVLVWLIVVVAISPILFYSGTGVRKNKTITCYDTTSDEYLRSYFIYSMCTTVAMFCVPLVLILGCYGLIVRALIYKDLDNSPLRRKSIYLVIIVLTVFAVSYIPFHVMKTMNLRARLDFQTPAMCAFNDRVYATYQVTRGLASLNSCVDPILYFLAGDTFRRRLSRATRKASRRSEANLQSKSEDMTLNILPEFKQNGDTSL
Conditions: not given
The format is cell-based.
Turning to `CCc1nc(Nc2cccnc2Oc2ccccc2C(C)(C)C)sc1-c1ccccc1`, the pKi is 7.92.
Still for that read-out and setting: to `CC(C)(C)c1ccccc1Oc1ncccc1Nc1nc(C(C)(C)C)c(-c2ccccc2)s1` belongs 7.51; to `CC(C)(C)c1ccccc1Oc1ncccc1Nc1nc(C(F)(F)F)c(-c2ccccc2)s1`, 8.15; to `CC(C)(C)c1ccccc1Oc1ncccc1Nc1nc(C(C)(C)CC(=O)O)c(-c2ccccc2)s1`, 6.68.
Same read-out and setting: the figure for `CN(C)C(=O)c1nc(Nc2cccnc2Oc2ccccc2C(C)(C)C)sc1-c1ccccc1` is 6.73; for `Cc1sc(Nc2cccnc2Oc2ccccc2C(C)(C)C)nc1C(F)(F)F` it is 7.96; for `CCOC(=O)c1sc(Nc2cccnc2Oc2ccccc2C(C)(C)C)nc1C(F)(F)F` it is 8.30.
The same measure, in the same setting: to `CC(C)(C)c1ccccc1Oc1ncccc1Nc1nc(C(F)(F)F)c(C#N)s1` belongs 7.68.
`Cc1noc(-c2sc(Nc3cccnc3Oc3ccccc3C(C)(C)C)nc2C(F)(F)F)n1`: the pKi was 8.22. Against the preceding compound, the pKi is 0.54 log units higher.
Turning to `CC(C)(C)c1ccccc1Oc1ncccc1Nc1nc(C(F)(F)F)c(C(N)=O)s1`, the pKi is 5.31.
On the same count and under the same terms, to `Cc1ccccc1-c1sc(Nc2cccnc2Oc2ccccc2C(C)(C)C)nc1C(F)(F)F` belongs 7.96.
The same measure, in the same setting: the figure for `Cc1ccc(-c2sc(Nc3cccnc3Oc3ccccc3C(C)(C)C)nc2C(F)(F)F)cc1` is 8.10.
Same read-out and setting: to `CC(C)(C)c1ccccc1Oc1ncccc1Nc1nc(C(F)(F)F)c(-c2ccccc2F)s1` belongs 8.15; to `COc1cccc(-c2sc(Nc3cccnc3Oc3ccccc3C(C)(C)C)nc2C(F)(F)F)c1`, 8.10.
Consider `COc1ccc(-c2sc(Nc3cccnc3Oc3ccccc3C(C)(C)C)nc2C(F)(F)F)cc1`, for which the pKi was 8.10.
In turn, `CC(C)(C)c1ccccc1Oc1ncccc1Nc1nc(C(F)(F)F)c(-c2ccc(OC(F)(F)F)cc2)s1` showed a pKi of 7.92. This pKi and that of the compound before are within 0.2 log units of each other.
Still for that read-out and setting: the figure for `CC(C)(C)c1ccccc1Oc1ncccc1Nc1nc(C(F)(F)F)c(-c2ccc(C#N)cc2)s1` is 7.89; for `CC(C)(C)c1ccccc1Oc1ncccc1Nc1nc(C(F)(F)F)c(-c2ccccc2O)s1` it is 6.36; for `CC(C)(C)c1ccccc1Oc1ncccc1Nc1nc(C(F)(F)F)c(-c2cccc(O)c2)s1` it is 6.71.
Same read-out and setting: the figure for `CN(C)CC(C)(C)COc1cccc(-c2sc(Nc3cccnc3Oc3ccccc3C(C)(C)C)nc2C(F)(F)F)c1` is 7.92.

Test system in another data set: not listed separately
Put plainly: Protein binding in human serum. The class given is ADME, cell-free. Conditions: read-out: PB.
For `CN(C)CC(C)(C)COc1cccc(-c2sc(Nc3cccnc3Oc3ccccc3C(C)(C)C)nc2C(F)(F)F)c1`, the fraction unbound was determined as 0.001.

Test system in another data set: not listed separately
Description: Oral bioavailability in rat. The format is ADME, organism-based. Conditions: in vivo.
In the case of `CN(C)CC(C)(C)COc1cccc(-c2sc(Nc3cccnc3Oc3ccccc3C(C)(C)C)nc2C(F)(F)F)c1`, the bioavailability is 27%.

Test system in another data set: not listed separately
Put plainly: Antiplatelet activity in human platelet rich plasma assessed as inhibition of ADP-induced platelet aggregation at 10 uM relative to control.
Conditions: not given
The class given is functional.
For the compound `CC(C)(C)c1ccccc1Oc1ncccc1Nc1ncc(-c2ccccc2)s1`, the inhibition at 10 µM is 87%.
Same read-out and setting: to `CCc1nc(Nc2cccnc2Oc2ccccc2C(C)(C)C)sc1-c1ccccc1` belongs 78%; to `CC(C)(C)c1ccccc1Oc1ncccc1Nc1nc(C(C)(C)C)c(-c2ccccc2)s1`, 86%.
For `CC(C)(C)c1ccccc1Oc1ncccc1Nc1nc(C(F)(F)F)c(-c2ccccc2)s1`, the inhibition at 10 µM stood at 61%.
The same measure, in the same setting: to `CC(C)(C)c1ccccc1Oc1ncccc1Nc1nc(C(C)(C)CC(=O)O)c(-c2ccccc2)s1` belongs 89%; to `CN(C)C(=O)c1nc(Nc2cccnc2Oc2ccccc2C(C)(C)C)sc1-c1ccccc1`, 100%.
Turning to `Cc1sc(Nc2cccnc2Oc2ccccc2C(C)(C)C)nc1C(F)(F)F`, the inhibition at 10 µM was found to be 96%.
Turning to `CCOC(=O)c1sc(Nc2cccnc2Oc2ccccc2C(C)(C)C)nc1C(F)(F)F`, the inhibition at 10 µM is 50%.
The same measure, in the same setting: the figure for `CC(C)(C)c1ccccc1Oc1ncccc1Nc1nc(C(F)(F)F)c(C#N)s1` is 101%.
As for `Cc1noc(-c2sc(Nc3cccnc3Oc3ccccc3C(C)(C)C)nc2C(F)(F)F)n1`, the inhibition at 10 µM was 56%.
On the same count and under the same terms, to `Cc1ccccc1-c1sc(Nc2cccnc2Oc2ccccc2C(C)(C)C)nc1C(F)(F)F` belongs 54%.
On to `Cc1ccc(-c2sc(Nc3cccnc3Oc3ccccc3C(C)(C)C)nc2C(F)(F)F)cc1`, for which the inhibition at 10 µM was 32%.
As for `CC(C)(C)c1ccccc1Oc1ncccc1Nc1nc(C(F)(F)F)c(-c2ccccc2F)s1`, the inhibition at 10 µM was 41%.
`COc1cccc(-c2sc(Nc3cccnc3Oc3ccccc3C(C)(C)C)nc2C(F)(F)F)c1`: the inhibition at 10 µM worked out at 41%.
The same measure, in the same setting: the figure for `COc1ccc(-c2sc(Nc3cccnc3Oc3ccccc3C(C)(C)C)nc2C(F)(F)F)cc1` is 30%; for `CC(C)(C)c1ccccc1Oc1ncccc1Nc1nc(C(F)(F)F)c(-c2ccc(OC(F)(F)F)cc2)s1` it is 85%.
On the same count and under the same terms, to `CC(C)(C)c1ccccc1Oc1ncccc1Nc1nc(C(F)(F)F)c(-c2ccc(C#N)cc2)s1` belongs 79%.
Regarding `CC(C)(C)c1ccccc1Oc1ncccc1Nc1nc(C(F)(F)F)c(-c2ccccc2O)s1`, the inhibition at 10 µM amounted to 99%.
On the same count and under the same terms, the figure for `CC(C)(C)c1ccccc1Oc1ncccc1Nc1nc(C(F)(F)F)c(-c2cccc(O)c2)s1` is 98%.
On the same count and under the same terms, to `CN(C)CC(C)(C)COc1cccc(-c2sc(Nc3cccnc3Oc3ccccc3C(C)(C)C)nc2C(F)(F)F)c1` belongs 17%.

Test system in the next data set: not listed separately
Put plainly: Antiplatelet activity in human platelet rich plasma assessed as inhibition of ADP-induced platelet aggregation. The class given is functional.
Conditions: not given
With `CC(C)(C)c1ccccc1Oc1ncccc1Nc1nc(C(F)(F)F)c(-c2ccccc2)s1`, the pIC50 is 4.92.
As for `CN(C)CC(C)(C)COc1cccc(-c2sc(Nc3cccnc3Oc3ccccc3C(C)(C)C)nc2C(F)(F)F)c1`, the pIC50 was 5.28.

The values are drawn from ChEMBL document CHEMBL2401677, “2-Aminothiazole based P2Y(1) antagonists as novel antiplatelet agents” (Bioorg Med Chem Lett, 2013).
